Source: ChEMBL document CHEMBL1138005, “Carbonic anhydrase inhibitors: synthesis and inhibition of cytosolic/tumor-associated carbonic anhydrase isozymes I, II, and IX with sulfonamides incorporating 1,2,4-triazine moieties” (Bioorg Med Chem Lett, 2004)

Legend:
[1] = target: Carbonic anhydrase 1 (Homo sapiens, UniProt P00915)
[2] = target: Carbonic anhydrase 2 (Homo sapiens, UniProt P00918)
[3] = target: Carbonic anhydrase 9 (Homo sapiens, UniProt Q16790)

Chain of Carbonic anhydrase 1 (P00915 whole entry): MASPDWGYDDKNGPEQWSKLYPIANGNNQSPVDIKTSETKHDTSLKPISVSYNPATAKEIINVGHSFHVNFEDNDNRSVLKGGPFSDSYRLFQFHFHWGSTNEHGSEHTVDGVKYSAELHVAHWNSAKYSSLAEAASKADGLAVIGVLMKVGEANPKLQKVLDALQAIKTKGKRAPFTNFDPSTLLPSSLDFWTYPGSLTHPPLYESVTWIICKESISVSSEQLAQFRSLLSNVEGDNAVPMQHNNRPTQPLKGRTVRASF

SMILES	Ki [1]	Ki [2]	Ki [3]
NS(=O)(=O)c1ccc(Nc2nc(=O)[nH]c(=O)[nH]2)cc1	0.103 µM	0.278 µM	0.142 µM
CCOc1nc(NCc2ccc(S(N)(=O)=O)cc2)nc(OCC)n1	0.11 µM	0.084 µM	0.00034 µM
CNc1nc(NC)nc(NCCc2ccc(S(N)(=O)=O)cc2)n1	0.088 µM	0.027 µM	0.0011 µM
COc1nc(NCCc2ccc(S(N)(=O)=O)cc2)nc(OC)n1	–	0.021 µM	0.162 µM
NS(=O)(=O)c1ccc(CNc2nc(=O)[nH]c(=O)[nH]2)cc1	0.094 µM	0.13 µM	0.36 µM
COc1nc(NCc2ccc(S(N)(=O)=O)cc2)nc(OC)n1	0.116 µM	0.112 µM	0.155 µM
CNc1nc(NC)nc(NCc2ccc(S(N)(=O)=O)cc2)n1	0.09 µM	0.015 µM	0.0013 µM
CNc1nc(NC)nc(Nc2ccc(S(N)(=O)=O)cc2)n1	0.083 µM	–	–
NS(=O)(=O)c1ccc(CCNc2nc(Cl)nc(Cl)n2)cc1	0.075 µM	0.021 µM	0.138 µM
NS(=O)(=O)c1ccc(CCNc2nc(=O)[nH]c(=O)[nH]2)cc1	0.096 µM	0.098 µM	0.549 µM
CCOc1nc(Nc2ccc(S(N)(=O)=O)cc2)nc(OCC)n1	0.078 µM	0.02 µM	0.00012 µM
COc1nc(Nc2ccc(S(N)(=O)=O)cc2)nc(OC)n1	0.085 µM	0.036 µM	0.15 µM
NS(=O)(=O)c1ccc(Nc2nc(Cl)nc(Cl)n2)cc1	–	–	0.00015 µM
CCOc1nc(NCCc2ccc(S(N)(=O)=O)cc2)nc(OCC)n1	0.082 µM	0.023 µM	–
